Data set [1] in a line: Dissociation constant, pKa of the compound. It is filed as physicochemical.
The nature of data set [2]: Lipophilicity, log D of the compound. Particulars: octanol/water.
A short description of data set [3]: Inhibition of human OAT2 tv.1 variant expressed in HEK293 cells assessed as inhibition of [3H]cGMP uptake by scintillation analysis. It is filed as ADME, cell-based. The settings on record: HEK293, 3 h.

As to `Nc1nc2[nH]cc(CCc3ccc(C(=O)N[C@@H](CCC(=O)O)C(=O)O)cc3)c2c(=O)[nH]1` [PEMETREXED], the pKa in data set [1] came out at 3.5. This compound yielded a logD in data set [2] of -1.93.
`Cc1noc(NS(=O)(=O)c2ccc(N)cc2)c1C` [SULFISOXAZOLE] gave a pKa in data set [1] of 4.8. In addition, in data set [2], the logD was -1.17.
On to `CC(C(=O)O)c1cccc(C(=O)c2ccccc2)c1` (stereo not given) [KETOPROFEN], for which, in data set [2], the logD was 0.21. For the same compound, in data set [3], the IC50 came to 14.9 µM.
Take `O=C1CN(/N=C/c2ccc(-c3ccc([N+](=O)[O-])cc3)o2)C(=O)N1` [DANTROLENE]: in data set [3], the IC50 came to 16 µM.
In data set [1], `N[C@@H]1[C@H]2CN(c3nc4c(cc3F)c(=O)c(C(=O)O)cn4-c3ccc(F)cc3F)C[C@@H]12` [TROVAFLOXACIN] had a pKa of 6. For the same compound, in data set [2], the logD stood at 0.42. Also, the IC50 in data set [3] came out at 11.5 µM.
`N=C(N)NCCCNC(=O)[C@@H]1CCCCN1C(=O)[C@@H](CC1CCCCC1)NCC(=O)O` [INOGATRAN]: the pKa in data set [1] worked out at 2.1. The logD in data set [2] was determined as 0.04.
In turn, `O=C(O)CSc1nnc(Br)n1-c1ccc(C2CC2)c2ccccc12` registered a pKa in data set [1] of 3.4. Further, the logD in data set [2] is 0.46. For the same compound, the IC50 in data set [3] turned out to be 11.5 µM.
`COc1ccc2c(c1)c(CC(=O)O)c(C)n2C(=O)c1ccc(Cl)cc1` [INDOMETHACIN]: the logD in data set [2] was found to be 1.03. Besides, the IC50 in data set [3] came to 2.9 µM.
Regarding `CN(C)CCc1c[nH]c2ccc(C[C@H]3COC(=O)N3)cc12` [ZOLMITRIPTAN], the pKa in data set [1] turned out to be 8.7. In addition, in data set [2], the logD was -0.63.
Turning to `COC(=O)C1=C(C)NC(C)=C(C(=O)OC)C1c1ccccc1[N+](=O)[O-]` [NIFEDIPINE], the IC50 in data set [3] came out at 6.5 µM.
Turning to `CCCc1nc2c(C)cc(-c3nc4ccccc4n3C)cc2n1Cc1ccc(-c2ccccc2C(=O)O)cc1`, in data set [1], the pKa was found to be 3.6. This compound also gave a logD in data set [2] of 2.35. Moreover, the half-maximal inhibitory concentration (IC50) in data set [3] is 13.7 µM.
Consider `CCCCc1nc(C)c(CC(=S)N(C)C)c(=O)n1Cc1ccc(-c2ccccc2-c2nnn[nH]2)cc1`, for which, in data set [1], the pKa is 4.2. Besides, the logD in data set [2] amounted to 0.91. Further, the IC50 in data set [3] came out at 15.7 µM.
For the compound `CC(C)(C)NCC(O)COc1cccc2c1CC(O)C(O)C2` (stereo not given) [NADOLOL], the pKa in data set [1] is 9.3. Further, in data set [2], the logD was -1.19.
In data set [1], `C[C@H]1CN(C[C@H](Cc2ccccc2)C(=O)NCC(=O)O)CC[C@@]1(C)c1cccc(O)c1` [ALVIMOPAN] had a pKa of 3.2. Besides, the logD in data set [2] turned out to be 0.65.
For `CCN(CC)C(=O)/C(C#N)=C/c1cc(O)c(O)c([N+](=O)[O-])c1` [ENTACAPONE], the pKa in data set [1] was 4.2. Also, in data set [2], the logD amounted to 0.23. Moreover, in data set [3], the concentration for half-maximal inhibition (IC50) worked out at 1.9 µM.
Regarding `CNCC[C@@H](Oc1ccccc1C)c1ccccc1` [ATOMOXETINE], in data set [1], the pKa was 9.6. The same compound gave a pH-dependent lipophilicity (logD) in data set [2] of 0.57.
Compound `CN(C)C(=O)CCSC(SCCC(=O)O)c1cccc(/C=C/c2ccc3ccc(Cl)cc3n2)c1` (stereo not given) [MK-571] showed a pKa in data set [1] of 4.6. In data set [2], this compound returned a pH-dependent lipophilicity (logD) of 2.55. Besides, the IC50 in data set [3] came to 9.5 µM.
Take `CN(C)CCCN1c2ccccc2CCc2ccccc21` [IMIPRAMINE]: the pKa in data set [1] is 9.
For `COc1ccc(Cl)cc1C(=O)NCCc1ccc(S(=O)(=O)NC(=O)NC2CCCCC2)cc1` [GLYBURIDE], in data set [2], the logD amounted to 2.15. In data set [3], the IC50 came to 14.9 µM.
The compound `Cc1ccc(O)c([C@H](CCN(C(C)C)C(C)C)c2ccccc2)c1` [TOLTERODINE] had a pKa in data set [1] of 9.2. The same compound came in with a log distribution coefficient (logD) in data set [2] of 1.82.
For `CNS(=O)(=O)Cc1ccc2[nH]cc(CCN(C)C)c2c1`, in data set [1], the pKa was found to be 8.7. Also, in data set [2], the pH-dependent lipophilicity (logD) is -1.08.
Consider `CNn1cc(C(=O)O)c(=O)c2cc(F)c(N3CCN(C)CC3)cc21` [AMIFLOXACIN], for which, in data set [1], the pKa amounted to 6.3. The compound further showed a logD in data set [2] of -0.08.
For `O=C1NC(=O)N(/N=C/c2ccc(-c3ccc([N+](=O)[O-])cc3)o2)C1O` (stereo not given), in data set [3], the IC50 is 16 µM.
In the case of `COc1cccc(OC)c1C(=O)N[C@@H]1C(=O)N2[C@@H]1SC(C)(C)[C@@H]2C(=O)O` [METHICILLIN], the pKa in data set [1] came to 2.8. Moreover, the logD in data set [2] was -1.88.
